Laboratory results reported in the NIST ThermoML archive (doi:10.1021/acs.jced.5b00436).
± gives the expanded uncertainty stated by the source.

assay: refractive index (Na D-line) (dimensionless); details: 293.15 K; 101.33 kPa; Liquid; Standard Abbe refractometry

Compared with `OCC(F)(F)C(F)(F)C(F)(F)C(F)F` [2,2,3,3,4,4,5,5-octafluoro-1-pentanol], `CCO` [ethanol] is higher in refractive index: 1.3171 ± 0.0005 for the first, 1.3616 ± 0.0005 for the second.

In the case of `O` [water], the refractive index is reported as 1.3328 ± 0.0005.
